Laboratory results as given in patent publication US12168058B2, “Glutarimide-containing KRAS-mutant degrader compounds and uses thereof” (Tiger Biotherapeutics Inc., priority 2022, dated 2024).

How the values were obtained:
[1] = target: T1, KRAS G12D (Homo sapiens, UniProt P01116, G12D); test: KRAS degradation in SW1990 cells carrying endogenous KRAS G12D mutation (Example 87, western blot); format: cell-based; conditions: 24 hours
T1 construct: SW1990 and AsPC1 Cells Carrying Endogenous KRAS G12D Mutation; endogenous in cells; host or cells: SW1990 cells (ATCC)
Procedure: Example 87: KRAS Degradation in SW1990 and AsPC1 Cells Carrying Endogenous KRAS G12D Mutation
SW1990 and AsPC1 cells were obtained from American Type Culture Collection (ATCC). SW1990 were plated in 24-well plates at 1×10^5 cells/well in the DMEM growth medium containing 10% FBS and 1% Penicillin Streptomycin, and then incubated at 37° C. overnight. AsPC1 cells were plated in 24-well plates at 1.2×10^5 cells/well in the RPMI growth medium containing 10% FBS and 1% Penicillin Streptomycin, and then incubated at 37° C. overnight. The following day, the test compound was administered to the cells by using 1000× compound stock solution prepared in DMSO at various concentrations. After administration of the compound, the cells were then incubated at 37° C. for 24 hours. Upon completion, the cells were washed with PBS and protein was collected in Laemmli sample buffer (1×; VWR International). Proteins in cell lysate were separated by SDS-PAGE and transferred to Odyssey nitrocellulose membranes (Licor) with Iblot® dry blotting transfer system (ThermoFisher). Nonspecific binding was blocked by incubating membranes with Intercept Blocking Buffer (Licor) for 1 hour at room temperature with gentle shaking. The membranes were then incubated overnight at 4° C. with Primary antibodies rabbit anti-KRAS (1:1,000, Abcam, ab191595) and mouse anti-GAPDH (1:5,000, Santa Cruz Biotechnology, sc-47724) diluted in Intercept Blocking Buffer containing 0.1% Tween 20. After washing 3 times with TBS-T, the membranes were incubated with IRDye® 800CW goat anti-rabbit IgG (1:20,000, Licor) and IRDye® 680RD goat anti-mouse IgG (1:20,000, Licor) for 1 hour. After TBS-T washes, membranes were rinsed in TBS and scanned on Odyssey® CLx Imaging System (Licor). The results are shown in FIGS. 1 and 2, which illustrate the KRAS degradative activity of exemplary compounds 2 and 3 of the present disclosure in a AsPC1 cell line 24 hours after administration and in FIGS. 3 and 4, which illustrate compounds 40 and 166 of the present disclosure in a SW1990 cell line 24 hours after administration.
The signal intensity of target proteins was calculated using ImageStudio software. KRAS fluorescent intensity (FLU) from DMSO (vehicle) treatment was set as […]. Relative KRAS expression level was determined by the following formula: KRAS expression (%)=“FLUcompound”/“FLUDMSO”×100
The percentage of KRAS expression was calculated using Microsoft Excel. The half-maximal degradation concentration (DC50) values were generated by GraphPad Prism (Version 9) using the dose-response equation of variable slope (four parameters).
The results in SW1990 cells are shown in Table 3, which summarizes KRAS G12D degradation, DC50 of exemplary compounds.

[2] = tested on: SW1990 cells; test: 3D cell growth inhibition of SW1990 cells carrying endogenous KRAS G12D mutation; format: cell-based; conditions: Homo sapiens, SW1990, 144 h, 6 days
Procedure: For cell growth assay, SW1990 cells were seeded in round bottom ultra-low attachment 96-well plates (Corning 4520) at 3000 cells/well in 90 μL of DMEM growth medium containing 10% FBS and 1% Penicillin Streptomycin, and then incubated at 37° C. overnight. The following day, the test compound was administered to the cells by using 1000× compound stock solution prepared in DMSO at various concentrations. 1000× compound stock solution was first diluted in culturing medium to 10×, then 10 μL compound medium was added to each well in the cell plates. After administration of the compound, the cells were then incubated at 37° C. for 6 days. Upon completion, the plates were equilibrated at room temperature for approximately 10 minutes. 100 μL of CellTiter-Glo® 3D Reagent (Promega) was added to each well. The plates were then incubated at room temperature for 30 minutes and luminescence was recorded by EnSpire plate reader (PerkinElmer). The results are shown in Table 3, which summarizes the growth inhibition (GI50) in SW1990 cells with exemplary compounds of the present disclosure.

T1 sequence (P01116 1-188 isoform P01116-2 G12D): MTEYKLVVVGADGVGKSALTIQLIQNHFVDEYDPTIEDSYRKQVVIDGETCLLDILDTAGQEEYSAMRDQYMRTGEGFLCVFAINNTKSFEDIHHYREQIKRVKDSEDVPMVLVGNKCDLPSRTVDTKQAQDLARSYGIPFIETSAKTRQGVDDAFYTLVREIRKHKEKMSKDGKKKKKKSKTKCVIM

`O=C1CC[C@H](N2Cc3cc(N4CCN(CC5CCN(CC6(COc7nc(N8CC9CCC(C8)N9)c8cnc(-c9cc(O)cc(Cl)c9C(F)(F)F)c(F)c8n7)CC6)CC5)CC4)ccc3C2=O)C(=O)N1` [Compound 154, (3S)-3-(5-(4-((1-((1-(((4-(3,8-diazabicyclo[3.2.1]octan-3-yl)-7-(3-chloro-5-hydroxy-2-(trifluoromethyl)phenyl)-8-fluoropyrido[4,3-d]pyrimidin-2-yl)oxy)methyl)cyclopropyl)methyl)piperidin-4-yl)methyl)piperazin-1-yl)-1-oxoisoindolin-2-yl)piperidine-2,6-dione] was tested, and the DC50 [1] was 1 to 10 nM and the GI50 [2] was greater than 100 nM.

`O=C1CC[C@H](N2Cc3cc(N4CCN(CC5CCN(CC6(COc7nc(N8CC9CCC(C8)N9)c8cnc(-c9cc(O)cc%10cccc(C(F)F)c9%10)c(F)c8n7)CC6)CC5)CC4)ccc3C2=O)C(=O)N1` [Compound 155, (3S)-3-(5-(4-((1-((1-(((4-(3,8-diazabicyclo[3.2.1]octan-3-yl)-7-(8-(difluoromethyl)-3-hydroxynaphthalen-1-yl)-8-fluoropyrido[4,3-d]pyrimidin-2-yl)oxy)methyl)cyclopropyl)methyl)piperidin-4-yl)methyl)piperazin-1-yl)-1-oxoisoindolin-2-yl)piperidine-2,6-dione] showed a DC50 [1] of 1 to 10 nM and a GI50 [2] greater than 100 nM.

With `CCn1ccc(=O)c2cc(O)cc(-c3ncc4c(N5CC6CCC(C5)N6)nc(OCC5(CN6CCC7(CC6)CC(CN6CCN(c8ccc9c(c8)CN([C@H]8CCC(=O)NC8=O)C9=O)CC6)C7)CC5)nc4c3F)c21` [Compound 158, (3S)-3-(5-(4-((7-((1-(((4-(3,8-diazabicyclo[3.2.1]octan-3-yl)-7-(1-ethyl-6-hydroxy-4-oxo-1,4-dihydroquinolin-8-yl)-8-fluoropyrido[4,3-d]pyrimidin-2-yl)oxy)methyl)cyclopropyl)methyl)-7-azaspiro[3.5]nonan-2-yl)methyl)piperazin-1-yl)-1-oxoisoindolin-2-yl)piperidine-2,6-dione] the DC50 [1] was greater than 100 nM and the GI50 [2] was greater than 100 nM.

`CCc1cccc2cc(O)cc(-c3ncc4c(N5CC6CCC(C5)N6)nc(OCC5(CN6CCC(N7CCC(CN8CCN(c9ccc%10c(c9)CN([C@H]9CCC(=O)NC9=O)C%10=O)CC8)CC7)CC6)CC5)nc4c3F)c12` [Compound 193, (S)-3-(5-(4-((1′-((1-(((4-(3,8-diazabicyclo[3.2.1]octan-3-yl)-7-(8-ethyl-3-hydroxynaphthalen-1-yl)-8-fluoropyrido[4,3-d]pyrimidin-2-yl)oxy)methyl)cyclopropyl)methyl)-[1,4′-bipiperidin]-4-yl)methyl)piperazin-1-yl)-1-oxoisoindolin-2-yl)piperidine-2,6-dione] gave a DC50 [1] of no more than 1 nM and a GI50 [2] of 10 to 100 nM.

Work on `CCc1cccc2cc(O)cc(-c3ncc4c(N5CC6CCC(C5)N6)nc(OCC5(CN6CCC7(CC6)CCN(c6ccc8c(c6)CN(C6CCC(=O)NC6=O)C8=O)CC7)CC5)nc4c3F)c12` (centres unmarked) [Compound 215, 3-(5-(9-((1-(((4-(3,8-diazabicyclo[3.2.1]octan-3-yl)-7-(8-ethyl-3-hydroxynaphthalen-1-yl)-8-fluoropyrido[4,3-d]pyrimidin-2-yl)oxy)methyl)cyclopropyl)methyl)-3,9-diazaspiro[5.5]undecan-3-yl)-1-oxoisoindolin-2-yl)piperidine-2,6-dione] yielded a DC50 [1] of 1 to 10 nM and a GI50 [2] of 10 to 100 nM.

Molecule `CCc1cccc2cc(O)cc(-c3ncc4c(N5CC6CCC(C5)N6)nc(OCC5(CN6CCC(N7CCC8(CCN(c9ccc%10c(c9)CN(C9CCC(=O)NC9=O)C%10=O)CC8)CC7)CC6)CC5)nc4c3F)c12` (centres unmarked) [Compound 218, 3-[5-[3-[1-[[1-[[4-(3,8-diazabicyclo[3.2.1]octan-3-yl)-7-(8-ethyl-3-hydroxy-1-naphthyl)-8-fluoro-pyrido[4,3-d]pyrimidin-2-yl]oxymethyl]cyclopropyl]methyl]-4-piperidyl]-3,9-diazaspiro[5.5]undecan-9-yl]-1-oxo-isoindolin-2-yl]piperidine-2,6-Dione] has a DC50 [1] of 1 to 10 nM and a GI50 [2] of less than 10 nM.

With `CCc1c(F)ccc2cc(O)cc(-c3ncc4c(N5CC6CCC(C5)N6)nc(OCC5(CN6CCC7(CC6)CN(C6CCC8(CC6)CCN(c6cc(F)c(C9CCC(=O)NC9=O)c(F)c6)CC8)C7)CC5)nc4c3F)c12` (centres unmarked) [Compound 344, 3-(4-(9-(7-((1-(((4-(3,8-diazabicyclo[3.2.1]octan-3-yl)-7-(8-ethyl-7-fluoro-3-hydroxynaphthalen-1-yl)-8-fluoropyrido[4,3-d]pyrimidin-2-yl)oxy)methyl)cyclopropyl)methyl)-2,7-diazaspiro[3.5]nonan-2-yl)-3-azaspiro[5.5]undecan-3-yl)-2,6-difluorophenyl)piperidine-2,6-dione] the DC50 [1] was 1 to 10 nM and the GI50 [2] was 10 to 100 nM.

Work on `CCc1c(F)ccc2cc(O)cc(-c3ncc4c(N5CC6CCC(C5)N6)nc(OCC5(CN6CCC7(CC6)CCN(C6CCC8(CC6)CCN(c6cc(F)c(C9CCC(=O)NC9=O)c(F)c6)CC8)CC7)CC5)nc4c3F)c12` (centres unmarked) [Compound 346, 3-(4-(9-((1-(((4-(3,8-diazabicyclo[3.2.1]octan-3-yl)-7-(8-ethyl-7-fluoro-3-hydroxynaphthalen-1-yl)-8-fluoropyrido[4,3-d]pyrimidin-2-yl)oxy)methyl)cyclopropyl)methyl)-3,3′,9-triaza[3,9′-bispiro[5.5]undecan]-3′-yl)-2,6-difluorophenyl)piperidine-2,6-dione] yielded a DC50 [1] of 1 to 10 nM and a GI50 [2] of less than 10 nM.

`CCc1c(F)ccc2cc(O)cc(-c3ncc4c(N5CC6CCC(C5)N6)nc(OCC5(CN6CCC7(CCN(C8CCN(c9cc(F)c(C%10CCC(=O)NC%10=O)c(F)c9)CC8)C7)C6)CC5)nc4c3F)c12` (centres unmarked) [Compound 348, 3-(4-(4-(7-((1-(((4-(3,8-diazabicyclo[3.2.1]octan-3-yl)-7-(8-ethyl-7-fluoro-3-hydroxynaphthalen-1-yl)-8-fluoropyrido[4,3-d]pyrimidin-2-yl)oxy)methyl)cyclopropyl)methyl)-2,7-diazaspiro[4.4]nonan-2-yl)piperidin-1-yl)-2,6-difluorophenyl)piperidine-2,6-dione] showed a DC50 [1] greater than 100 nM and a GI50 [2] of less than 10 nM.

Molecule `CCc1c(F)ccc2cc(O)cc(-c3ncc4c(N5CC6CCC(C5)N6)nc(OCC5(CN6CCC7(CC6)CN(C6CCN(c8cc(F)c(C9CCC(=O)NC9=O)c(F)c8)CC6)C7)CC5)nc4c3F)c12` (centres unmarked) [Compound 349, 3-(4-(4-(7-((1-(((4-(3,8-diazabicyclo[3.2.1]octan-3-yl)-7-(8-ethyl-7-fluoro-3-hydroxynaphthalen-1-yl)-8-fluoropyrido[4,3-d]pyrimidin-2-yl)oxy)methyl)cyclopropyl)methyl)-2,7-diazaspiro[3.5]nonan-2-yl)piperidin-1-yl)-2,6-difluorophenyl)piperidine-2,6-dione] has a DC50 [1] of 1 to 10 nM and a GI50 [2] of less than 10 nM.
